Assay results taken from the supplement of paper PMC10307832.

Key:
Assay in all cases: relative viability (nuclei count vs DMSO), 5 days (fraction); higher = more cells survive
[1] = system: EKVX
Outline: (§1)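 Relative viability was taken as the ratio of nuclei in treated wells to nuclei in vehicle wells. Lung cancer cell lines in 1536-well plates received compounds by pin tool one day after seeding, either one drug alone or a fixed anchor-drug dose plus five library-drug doses (not always all listed) in √10 steps. Nuclei were counted on 4× images after 5 days of treatment, and values are medians of duplicate plates.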

[2] = system: HARA
Outline: as §1

[3] = system: NCI-H647
Outline: as §1

[4] = system: NCI-H1792
Outline: as §1

[5] = system: NCI-H522
Outline: as §1

[6] = system: NCI-H2405
Outline: as §1

[7] = system: NCI-H358
Outline: as §1

[8] = system: A-427
Outline: as §1

[9] = system: NCI-H1755
Outline: as §1

[10] = system: NCI-H1650
Outline: as §1

[11] = system: LU99A
Outline: as §1

[12] = system: HCC-44
Outline: as §1

[13] = system: LK-2
Outline: as §1

[14] = system: NCI-H460
Outline: as §1

[15] = system: NCI-H1993
Outline: as §1

[16] = system: RERF-LC-KJ
Outline: as §1

[17] = system: NCI-H1734
Outline: as §1

[18] = system: COR-L 105
Outline: as §1

[19] = system: SW 900
Outline: as §1

[20] = system: EPLC-272H
Outline: as §1

[21] = system: EMC-BAC-2
Outline: as §1

[22] = system: ChaGo-K-1
Outline: as §1

[23] = system: NCI-H596
Outline: as §1

Compound: Cc1csc(=NC2CCCCC2)n1/N=C/c1ccc(O)c(O)c1O [MIM1] + O=C(c1cc(Cc2n[nH]c(=O)c3ccccc23)ccc1F)N1CCN(C(=O)C2CC2)CC1 [Olaparib] (partner 8 µM)
- relative viability ([1]; first compound 0.2 µM): 0.776
- relative viability ([1]; first compound 0.6325 µM): 0.785
- relative viability ([1]; first compound 2 µM): 0.59
- relative viability ([1]; first compound 6.325 µM): 0.51
- relative viability ([1]; first compound 20 µM): 0.412
- relative viability ([2]; first compound 0.2 µM): 0.792
- relative viability ([2]; first compound 0.6325 µM): 1.06
- relative viability ([2]; first compound 2 µM): 0.824
- relative viability ([2]; first compound 6.325 µM): 0.187
- relative viability ([2]; first compound 20 µM): 0.177
- relative viability ([3]; first compound 0.2 µM): 0.611
- relative viability ([3]; first compound 0.6325 µM): 0.53
- relative viability ([3]; first compound 2 µM): 0.697
- relative viability ([3]; first compound 6.325 µM): 0.369
- relative viability ([3]; first compound 20 µM): 0.0666
- relative viability ([4]; first compound 0.2 µM): 0.469
- relative viability ([4]; first compound 0.6325 µM): 0.368
- relative viability ([4]; first compound 2 µM): 0.454
- relative viability ([4]; first compound 6.325 µM): 0.279
- relative viability ([4]; first compound 20 µM): 0.398
- relative viability ([5]; first compound 0.2 µM): 0.597
- relative viability ([5]; first compound 0.6325 µM): 0.625
- relative viability ([5]; first compound 2 µM): 0.587
- relative viability ([5]; first compound 6.325 µM): 0.725
- relative viability ([5]; first compound 20 µM): 0.466
- relative viability ([6]; first compound 0.2 µM): 0.881
- relative viability ([6]; first compound 0.6325 µM): 0.918
- relative viability ([6]; first compound 2 µM): 0.827
- relative viability ([6]; first compound 6.325 µM): 0.681
- relative viability ([6]; first compound 20 µM): 0.369
- relative viability ([7]; first compound 0.2 µM): 0.558
- relative viability ([7]; first compound 0.6325 µM): 0.533
- relative viability ([7]; first compound 2 µM): 0.516
- relative viability ([7]; first compound 6.325 µM): 0.379
- relative viability ([7]; first compound 20 µM): 0.123
- relative viability ([8]; first compound 0.2 µM): 0.757
- relative viability ([8]; first compound 0.6325 µM): 0.738
- relative viability ([8]; first compound 2 µM): 0.71
- relative viability ([8]; first compound 6.325 µM): 0.671
- relative viability ([8]; first compound 20 µM): 0.281
- relative viability ([9]; first compound 0.2 µM): 0.857
- relative viability ([9]; first compound 0.6325 µM): 0.84
- relative viability ([9]; first compound 2 µM): 0.94
- relative viability ([9]; first compound 6.325 µM): 0.699
- relative viability ([9]; first compound 20 µM): 0.262
- relative viability ([10]; first compound 0.2 µM): 0.627
- relative viability ([10]; first compound 0.6325 µM): 0.828
- relative viability ([10]; first compound 2 µM): 0.499
- relative viability ([10]; first compound 6.325 µM): 0.226
- relative viability ([10]; first compound 20 µM): 0.233
- relative viability ([11]; first compound 0.2 µM): 0.298
- relative viability ([11]; first compound 0.6325 µM): 0.246
- relative viability ([11]; first compound 2 µM): 0.207
- relative viability ([11]; first compound 6.325 µM): 0.272
- relative viability ([11]; first compound 20 µM): 0.125
- relative viability ([12]; first compound 0.2 µM): 1.02
- relative viability ([12]; first compound 0.6325 µM): 0.975
- relative viability ([12]; first compound 2 µM): 0.859
- relative viability ([12]; first compound 6.325 µM): 0.675
- relative viability ([12]; first compound 20 µM): 0.455
- relative viability ([13]; first compound 0.2 µM): 0.934
- relative viability ([13]; first compound 0.6325 µM): 0.75
- relative viability ([13]; first compound 2 µM): 0.472
- relative viability ([13]; first compound 6.325 µM): 0.685
- relative viability ([13]; first compound 20 µM): 0.148
- relative viability ([14]; first compound 0.2 µM): 0.403
- relative viability ([14]; first compound 0.6325 µM): 0.411
- relative viability ([14]; first compound 2 µM): 0.195
- relative viability ([14]; first compound 6.325 µM): 0.213
- relative viability ([14]; first compound 20 µM): 0.0637
- relative viability ([15]; first compound 0.2 µM): 1
- relative viability ([15]; first compound 0.6325 µM): 0.819
- relative viability ([15]; first compound 2 µM): 0.949
- relative viability ([15]; first compound 6.325 µM): 0.873
- relative viability ([15]; first compound 20 µM): 0.432
- relative viability ([16]; first compound 0.2 µM): 0.662
- relative viability ([16]; first compound 0.6325 µM): 0.557
- relative viability ([16]; first compound 2 µM): 0.197
- relative viability ([16]; first compound 6.325 µM): 0.221
- relative viability ([16]; first compound 20 µM): 0.215
- relative viability ([17]; first compound 0.2 µM): 0.58
- relative viability ([17]; first compound 0.6325 µM): 0.632
- relative viability ([17]; first compound 2 µM): 0.559
- relative viability ([17]; first compound 6.325 µM): 0.496
- relative viability ([17]; first compound 20 µM): 0.132
- relative viability ([18]; first compound 0.2 µM): 0.694
- relative viability ([18]; first compound 0.6325 µM): 0.673
- relative viability ([18]; first compound 2 µM): 0.63
- relative viability ([18]; first compound 6.325 µM): 0.554
- relative viability ([18]; first compound 20 µM): 0.564
- relative viability ([19]; first compound 0.2 µM): 0.968
- relative viability ([19]; first compound 0.6325 µM): 0.819
- relative viability ([19]; first compound 2 µM): 0.852
- relative viability ([19]; first compound 6.325 µM): 0.209
- relative viability ([19]; first compound 20 µM): 0.181
- relative viability ([20]; first compound 0.2 µM): 0.664
- relative viability ([20]; first compound 0.6325 µM): 0.858
- relative viability ([20]; first compound 2 µM): 0.622
- relative viability ([20]; first compound 6.325 µM): 0.111
- relative viability ([20]; first compound 20 µM): 0.108
- relative viability ([21]; first compound 0.2 µM): 0.494
- relative viability ([21]; first compound 2 µM): 0.433
- relative viability ([21]; first compound 6.325 µM): 0.378
- relative viability ([21]; first compound 20 µM): 0.212
- relative viability ([22]; first compound 0.2 µM): 0.399
- relative viability ([22]; first compound 0.6325 µM): 0.346
- relative viability ([22]; first compound 2 µM): 0.385
- relative viability ([22]; first compound 6.325 µM): 0.214
- relative viability ([22]; first compound 20 µM): 0.127
- relative viability ([23]; first compound 0.2 µM): 0.741
- relative viability ([23]; first compound 0.6325 µM): 0.73
- relative viability ([23]; first compound 2 µM): 0.694
- relative viability ([23]; first compound 6.325 µM): 0.626
- relative viability ([23]; first compound 20 µM): 0.491
